Laboratory results taken from article PMC4457840, “Differential Inhibition of Signal Peptide Peptidase Family Members by Established γ-Secretase Inhibitors” (PLoS ONE, 2015).
“Also recorded” adds a separate entry of the source. Read-outs that look alike come from different tables or passages of the source. Numbered stars: 1 amine (or outer) side, 2 acyl side, 3 side chain; on linkers, the order of the positions; unused ones are H or OH. Square brackets hold non-standard residues; d marks the D form. Peptide text beside a SMILES is read from it. * marks the point of attachment. X1 = CC(N[*:1])C(=O)C(F)(F)C(=O)[*:2]; Boc = CC(C)(C)OC(=O)*

How the values were obtained:
pSPP = pSPP (Plasmodium falciparum, UniProt Q8IKQ9); assay: FBA/pSPP co-transfected HEK 293T cell cleavage assay (Aβ ELISA, Western blot, IP/MS); assay type: cell-based, human; conditions: for inhibition at 25 µM: read-out: inhibition of the SPP/SPPLs; for rank order of inhibition: number in parenthesis in Table 3
pSPP, sequence (Q8IKQ9 entry or part of it): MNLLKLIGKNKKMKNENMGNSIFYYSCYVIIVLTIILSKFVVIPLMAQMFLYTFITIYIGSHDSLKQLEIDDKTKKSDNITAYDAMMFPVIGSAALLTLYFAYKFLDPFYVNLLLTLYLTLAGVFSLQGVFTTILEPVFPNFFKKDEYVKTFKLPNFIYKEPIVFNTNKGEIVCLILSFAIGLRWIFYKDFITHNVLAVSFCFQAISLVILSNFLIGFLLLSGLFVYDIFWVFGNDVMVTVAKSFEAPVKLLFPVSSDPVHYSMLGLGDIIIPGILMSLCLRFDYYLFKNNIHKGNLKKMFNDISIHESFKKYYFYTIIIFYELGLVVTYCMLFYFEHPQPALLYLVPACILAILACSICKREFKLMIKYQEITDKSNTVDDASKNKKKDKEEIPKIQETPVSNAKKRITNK
Source text: (§1) Expression constructs in pcDNA6 for COOH-terminal FLAG (DYKDDDDK) and strep (WSHPQFEK) tagged SPPL2a, SPPL2b, hSPP and pSPP were generated as previously described. Untagged versions of all enzymes were also made and ligated into the pAG3 vector. Substrates (Fig 1) were designed as follows: FLAG-BRI2_1-81- Aβ1-25/K16A (FBA). The K16A mutation was incorporated to prevent potential α-secretase cleavage that would preclude ELISA based detection of the released COOH-terminal fragment. The substrate DNA was cloned into the expression vector pcDNA6. Constructs were confirmed by DNA sequencing. The overexpression of substrates was performed by transiently transfecting human embryonic kidney (HEK 293T) cells with or without SPP/SPPL vectors. Cells were grown in DMEM media supplemented with Hyclone 10% fetal bovine serum (GE, Logan, Utah, USA) and 1% penicillin/streptomycin (Life Technologies, Grand Island, NY, USA). Briefly, 2.7 μg DNA was applied to a 75% confluent 6 well plate (Corning, Tewksbury, MA, USA) using the polycation polyethylenimine (PEI) transfection method. Inhibitor testing experiments were conducted in 48 well plates with appropriately adjusted amounts of DNA and PEI and incubated 12–16 hours, after which the growth medium was replaced with fresh medium. DMSO (Sigma, St. Louis, MO, USA) and GSIs were added at the appropriate concentration. The GSIs, L685,458 and Compound W were purchased from Tocris (Tocris, Bristol, UK). (Z-LL)2 ketone, Compound E, DAPT, GSI II were purchased from Calbiochem (Merck Millipore, Billerica, MA, USA). LY-411,575 was synthesized by A. Fauq at the Mayo Clinic Chemical Core. Twenty-four hours later, the medium was collected for assay by ELISA and MS. A20 cells (TIB-208) (ATCC, Manassas, VA, USA) were cultured in RPMI-1640 medium (ATCC) supplied with 10% fetal bovine serum, 1% penicillin/streptomycin and 0.05 mM 2-mercaptoethanol (Life Technologies). At the density of 5x10^5 cells/ml, A20 cells were spun down at 1000 g for 2 min and resuspended in fresh medium supplied with DMSO or GSIs and incubated for 16 hr.
(§2) Sandwich ELISAs used for Aβ detection were performed as previously described. Briefly, Aβ and Aβ adducts with substrate TMD in conditioned media was captured with Ab5 antibody (human Aβ1–16 specific) and detected with horseradish peroxidase mAb 4G8 (Covance, Princeton, NJ, USA). Synthetic Aβ1–40 was used as standard. All ELISAs were developed with TMB substrate (KPL, Gaithersburg, Maryland, USA). Bis-Tris precast gels (Biorad, Hercules, CA, USA) were used for all SDS-PAGE. Monoclonal anti-FLAG M2 antibody (Sigma) and Aβ1–16 antibody 6E10 (Covance) were used for Western blotting. Antisera against SPPL2a, SPPL2b, hSPP and pSPP were generated as previously described and were used at dilution of 1:1000 for Western blotting. Anti-CD74 In-1 antibody (BD Bioscience, San Jose, CA, USA) was used for A20 cell lysate Western blotting at dilution of 1:1000.
(§3) Immunoprecipitation and mass spectrometry of xAβ1–25 in conditioned media were performed as previously described. In this study, 10 ml conditioned media were used for each experiment. ICDs were immunoprecipitated with anti-FLAG M2 magnetic beads. Cells from 10 cm dished treated with DMSO or 20 μM LY-411,575 were used for each test.

SPPL2a = target: T1, SPPL2a (Homo sapiens, UniProt Q8TCT8); assay: FBA/SPPL2a co-transfected HEK 293T cell cleavage assay (Aβ ELISA, Western blot); assay type: cell-based; conditions: for inhibition of xAβ1-25/K16A secretion (in words) / inhibition at 25 µM: 25 μM; for IC50: HEK cells, 24 h, xAβ1-25/K16A by Aβ ELISA, mean ± standard error, read-out: IC50 on FBA/SPPL co-transfected cells; for inhibition at 25 µM: HEK-293T, DMSO = 100%, read-out: inhibition of the SPP/SPPLs; for rank order of inhibition: number in parenthesis in Table 3
T1 construct: expressed in transfected cells; host or cells: HEK 293T
T1 sequence (Q8TCT8 26-520): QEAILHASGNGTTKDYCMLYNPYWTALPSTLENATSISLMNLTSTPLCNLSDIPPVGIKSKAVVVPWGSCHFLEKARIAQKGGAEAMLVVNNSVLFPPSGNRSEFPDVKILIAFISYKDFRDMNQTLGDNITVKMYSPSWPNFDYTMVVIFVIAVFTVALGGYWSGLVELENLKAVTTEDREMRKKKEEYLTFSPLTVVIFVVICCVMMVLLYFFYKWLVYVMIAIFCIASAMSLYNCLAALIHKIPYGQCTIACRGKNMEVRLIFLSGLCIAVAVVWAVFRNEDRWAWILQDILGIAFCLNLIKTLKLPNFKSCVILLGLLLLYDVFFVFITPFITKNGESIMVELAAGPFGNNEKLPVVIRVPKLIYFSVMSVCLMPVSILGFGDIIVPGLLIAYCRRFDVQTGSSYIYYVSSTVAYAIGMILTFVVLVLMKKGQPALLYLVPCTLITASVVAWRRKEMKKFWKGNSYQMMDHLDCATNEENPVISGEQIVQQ
Source text: as §1, §2

hSPP = target: T2, hSPP (Homo sapiens, UniProt Q8TCT9); assay: FBA/hSPP co-transfected HEK 293T cell cleavage assay (Aβ ELISA, Western blot, IP/MS); assay type: cell-based; conditions: for inhibition of xAβ1-25/K16A secretion (in words) / inhibition at 25 µM: 25 μM, ELISA; for inhibition of FBA cleavage by Western blot: Fig 3C lower panel; for IC50: HEK cells, 24 h, xAβ1-25/K16A by Aβ ELISA, mean ± standard error, read-out: IC50 on FBA/SPPL co-transfected cells; for inhibition at 25 µM: DMSO = 100%, read-out: inhibition of the SPP/SPPLs; for rank order of inhibition: number in parenthesis in Table 3
T2 construct: expressed in transfected cells; host or cells: HEK 293T
T2 sequence (Q8TCT9 1-377): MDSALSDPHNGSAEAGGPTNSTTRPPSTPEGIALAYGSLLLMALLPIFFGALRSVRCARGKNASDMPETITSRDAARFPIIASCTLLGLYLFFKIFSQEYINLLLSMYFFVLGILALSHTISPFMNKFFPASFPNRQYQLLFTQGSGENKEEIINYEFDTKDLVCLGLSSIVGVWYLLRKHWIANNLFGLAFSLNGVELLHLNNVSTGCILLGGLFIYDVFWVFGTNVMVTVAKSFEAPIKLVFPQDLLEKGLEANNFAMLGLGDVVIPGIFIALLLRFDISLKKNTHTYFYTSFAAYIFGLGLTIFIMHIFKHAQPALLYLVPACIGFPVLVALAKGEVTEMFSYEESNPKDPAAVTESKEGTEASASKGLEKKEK
Source text: as §1, §2, §3

[1] = 10 μM, Western blot anti-FLAG M2

Compound | IC50 (pSPP) | inhibition of xAβ1-25/K16A secretion (in words) (pSPP; pSPP, 25 μM, ELISA) | rank order of inhibition (pSPP; pSPP) | inhibition of xAβ1-25/K16A secretion (in words) (SPPL2a; ELISA) | IC50 (SPPL2a) | inhibition at 25 µM (SPPL2a; ELISA) | rank order of inhibition (SPPL2a) | inhibition of xAβ1-25/K16A secretion (in words) (hSPP) | inhibition of FBA cleavage by Western blot (hSPP) | IC50 (hSPP) | inhibition at 25 µM (hSPP; HEK-293T) | rank order of inhibition (hSPP) | other results
CC(C)C[C@H](NC(=O)OCc1ccccc1)C(=O)N[C@@H](CC(C)C)C(=O)NCC(=O)CNC(=O)[C@H](CC(C)C)NC(=O)[C@H](CC(C)C)NC(=O)OCc1ccccc1 [(Z-LL)2 ketone] | 472 ± 114 nM | largely inhibited | 3 | largely inhibited | 177 ± 99 nM | > 90% | 2 | largely inhibited | efficiently inhibited | 519 ± 97 nM | > 90% | 4 | inhibition at 10 µM (pSPP; HEK-293T, pSPP, 10 μM, overnight, Aβ ELISA): > 75%; inhibition at 25 µM (pSPP; HEK-293T, pSPP, 25 μM, ELISA, DMSO = 100%): > 90%; FBA cleavage by co-transfected SPPL (in words) (pSPP; pSPP, 10 μM, Aβ ELISA, Fig 1D): largely inhibited; generation of the SPP/SPPL dependent 10 kDa ICD (pSPP; pSPP, 10 μM, Western blot anti-FLAG M2): significantly reduced; FBA cleavage by co-transfected SPPL (in words) (SPPL2a; 10 μM, Aβ ELISA, Fig 1D): largely inhibited; generation of the SPP/SPPL dependent 10 kDa ICD (SPPL2a; [1]): significantly reduced; FBA cleavage by co-transfected SPPL (in words) (hSPP; 10 μM, Aβ ELISA, Fig 1D): largely inhibited; generation of the SPP/SPPL dependent 10 kDa ICD (hSPP; [1]): significantly reduced; inhibition at 10 µM (hSPP; HEK-293T, 10 μM, overnight, Aβ ELISA): > 75%
C[C@H](NC(=O)Cc1cc(F)cc(F)c1)C(=O)N[C@H]1N=C(c2ccccc2)c2ccccc2N(C)C1=O [Compound E] | – | did not show inhibition | – | – | – | – | – | inhibited; also recorded: selectively inhibit hSPP cleavage | efficiently inhibited | 1470 ± 93 nM | – | – | inhibition of SPPL2a in dose response (SPPL2a; at the doses tested, ELISA): < 50%; inhibition of xAβ1-25/K16A secretion (in words) (hSPP; listed as Comp E): selectively inhibit hSPP
C[C@H](NC(=O)Cc1cc(F)cc(F)c1)C(=O)NC(C(=O)OC(C)(C)C)c1ccccc1 (stereo partly shown) [DAPT] | – | does not inhibit | – | does not inhibit | – | – | – | does not inhibit | – | – | – | – | –
CC[C@H](C)[C@H](NC(=O)[C@@H](NC(=O)OC(C)(C)C)C(C)C)C(=O)NC(C)C(=O)C(F)(F)C(=O)N[C@H](C(=O)N[C@H](C(=O)OC)[C@@H](C)CC)C(C)C (stereo partly shown) [GSI II] (Boc-VI[X1]VI-OMe) | 427 ± 100 nM | efficiently inhibited; also recorded: largely inhibited | 2 | efficiently inhibited; also recorded: largely inhibited | 8800 ± 94 nM | – | 4 | efficiently inhibited; also recorded: largely inhibited | efficiently inhibited | 423 ± 92 nM | – | 3 | –
C[C@H](NC(=O)[C@@H](O)c1cc(F)cc(F)c1)C(=O)N[C@@H]1C(=O)N(C)c2ccccc2-c2ccccc21 [LY-411,575] | 3480 ± 90 nM | largely inhibited | 4 | largely inhibited | 51 ± 79 nM | > 90% | 1 | largely inhibited | efficiently inhibited | 150 ± 106 nM | > 90% | 1 | inhibition at 25 µM (pSPP; HEK-293T): > 90%; cleavage products in conditioned media by IP/MS (pSPP; pSPP, 20 μM): No major cleavage product was detected; cleavage products in conditioned media by IP/MS (hSPP; 20 μM): No major cleavage product was detected
